Among the data in patent US8163740B2, “6-substituted benzoxazines” (Hoffmann-La Roche Inc., priority 2008, dated 2012) are Ki values, retold here.

Broadly, the Ki is the dissociation constant of the complex between target and ligand, obtained from inhibition or displacement.

The test deals with recombinant human 5-HT5A receptor (Homo sapiens, UniProt P47898). Description: [3H]LSD radioligand binding assay. The following applies: [3H]LSD (approximately 1 nM); membranes from HEK-EBNA cells transiently expressing 5-HT5A; Ki by Cheng-Prussoff equation; read-out: Ki. Put shortly: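 Membranes from HEK-EBNA cells transiently expressing the receptor, with ~1 nM [3H]LSD in 50 mM Tris, 1 mM EGTA, 10 mM MgCl2, 10 μM pargyline, pH 7.4, SPA bead format. Incubated 120 min RT; nonspecific binding defined with 2 μM methiothepin. 10 concentrations in duplicate; IC50 converted to Ki via Cheng-Prusoff.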
recombinant human 5-HT5A receptor, sequence (P47898 whole entry): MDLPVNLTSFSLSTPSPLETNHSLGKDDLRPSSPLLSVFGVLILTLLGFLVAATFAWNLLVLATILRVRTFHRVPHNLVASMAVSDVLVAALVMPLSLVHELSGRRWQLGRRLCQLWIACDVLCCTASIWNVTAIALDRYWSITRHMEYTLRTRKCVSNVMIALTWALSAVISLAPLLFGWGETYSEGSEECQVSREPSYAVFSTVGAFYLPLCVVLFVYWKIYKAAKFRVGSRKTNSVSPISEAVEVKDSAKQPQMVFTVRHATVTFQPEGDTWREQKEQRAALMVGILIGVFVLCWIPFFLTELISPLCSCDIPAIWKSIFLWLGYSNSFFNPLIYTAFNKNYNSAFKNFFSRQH
For `CC(C)N1C2CCC1CC(NCC(=O)Nc1ccc3c(c1)COC(N[C@@H]1CCCc4ccccc41)=N3)C2` (stereo partly drawn) [Example 73, 2-((exo)-8-Isopropyl-8-aza-bicyclo[3.2.1]oct-3-ylamino)-N-{2-[(R)-(1,2,3,4-tetrahydro-naphthalen-1-yl)amino]-4H-benzo[d][1,3]oxazin-6-yl}-acetamide], the Ki is 61.3 nM. In the case of `CC(C)N1C2CCC1CC(NCC(=O)Nc1ccc3c(c1)COC(N[C@@H]1CCc4ccccc41)=N3)C2` (stereo partly drawn) [Example 76, N-[2-((R)-Indan-1-ylamino)-4H-benzo[d][1,3]oxazin-6-yl]-2-((exo)-8-isopropyl-8-aza-bicyclo[3.2.1]oct-3-ylamino)-acetamide], the inhibitory constant (Ki) amounted to 13.5 nM.

For the compound `Cc1ccc(CNC2=Nc3ccc(N)cc3CO2)o1` [Example 77, N^2-(5-Methyl-furan-2-ylmethyl)-4H-benzo[d][1,3]oxazine-2,6-diamine], the Ki stood at 13.5 nM. For the compound `CS(=O)(=O)Nc1ccc2c(c1)COC(N[C@@H]1CCc3ccccc31)=N2` [Example 78, N-[2-((R)-Indan-1-ylamino)-4H-benzo[d][1,3]oxazin-6-yl]-methanesulfonamide], the Ki is 4.44 nM.

Consider `O=S(=O)(Nc1ccc2c(c1)COC(N[C@@H]1CCc3ccccc31)=N2)C1CC1` [Example 79, Cyclopropanesulfonic acid [2-((R)-indan-1-ylamino)-4H-benzo[d][1,3]oxazin-6-yl]-amide], for which the Ki came to 1.81 nM. The figure for `Cc1ccc(CNC2=Nc3ccc(NC(=O)C4CC4)cc3CO2)o1` [Example 82, Cyclopropanecarboxylic acid {2-[(5-methyl-furan-2-ylmethyl)-amino]-4H-benzo[d][1,3]oxazin-6-yl}-amide] is 11.7 nM; for `O=S(=O)(Nc1ccc2c(c1)COC(N[C@@H]1CCc3ccccc31)=N2)c1ccccc1` [Example 83, N-[2-((R)-Indan-1-ylamino)-4H-benzo[d][1,3]oxazin-6-yl]-benzenesulfonamide] it is 3.69 nM.

With `Cc1ccc(CNC2=Nc3ccc(NC(=O)CN4CCN(C)CC4)cc3CO2)o1` [Example 84, N-{2-[(5-Methyl-furan-2-ylmethyl)-amino]-4H-benzo[d][1,3]oxazin-6-yl}-2-(4-methyl-piperazin-1-yl)-acetamide], the Ki came to 26.8 nM. The figure for `Cc1ccc(CNC2=Nc3ccc(NC(=O)CN4CCOCC4)cc3CO2)o1` [Example 85, N-{2-[(5-Methyl-furan-2-ylmethyl)-amino]-4H-benzo[d][1,3]oxazin-6-yl}-2-morpholin-4-yl-acetamide] is 251 nM; for `Nc1ccc2c(c1)COC(NCCOc1ccccc1)=N2` [Example 87, N^2-(2-Phenoxy-ethyl)-4H-benzo[d][1,3]oxazine-2,6-diamine] it is 3.6 nM. For the compound `c1cncc(CNc2ccc3c(c2)COC(N[C@@H]2CCc4ccccc42)=N3)c1` [Example 88, N^2—(R)-Indan-1-yl-N^6-pyridin-3-ylmethyl-4H-benzo[d][1,3]oxazine-2,6-diamine], the inhibition constant (Ki) was found to be 1.68 nM. On to `c1ccc2c(c1)CC[C@H]2NC1=Nc2ccc(NCc3nccs3)cc2CO1` [Example 89, N^2—(R)-Indan-1-yl-N^6-thiazol-2-ylmethyl-4H-benzo[d][1,3]oxazine-2,6-diamine], for which the Ki came to 1.18 nM. For `Nc1ccc2c(c1)COC(NC1CCCCCC1)=N2` [Example 92, N^2-Cycloheptyl-4H-benzo[d][1,3]oxazine-2,6-diamine], the Ki worked out at 16.7 nM.

In the case of `CN1CCN(CC(=O)Nc2ccc3c(c2)COC(NC2CCCCCC2)=N3)CC1` [Example 93, N-(2-Cycloheptylamino-4H-benzo[d][1,3]oxazin-6-yl)-2-(4-methyl-piperazin-1-yl)-acetamide], the Ki was found to be 10.8 nM. For the compound `c1ccc(CNc2ccc3c(c2)COC(NC2CCCCCC2)=N3)cc1` [Example 94, N^6-Benzyl-N^2-cycloheptyl-4H-benzo[d][1,3]oxazine-2,6-diamine], the inhibition constant Ki came out at 63.5 nM. The figure for `O=C(Nc1ccc2c(c1)COC(NC1CCCCCC1)=N2)C1CC1` [Example 95, Cyclopropanecarboxylic acid (2-cycloheptylamino-4H-benzo[d][1,3]oxazin-6-yl)-amide] is 5.53 nM. The figure for `O=C(Nc1ccc2c(c1)COC(NCCOc1ccccc1)=N2)C1CC1` [Example 96, Cyclopropanecarboxylic acid [2-(2-phenoxy-ethylamino)-4H-benzo[d][1,3]oxazin-6-yl]-amide] is 3.3 nM. The figure for `O=S(=O)(Nc1ccc2c(c1)COC(NC1CCCCCC1)=N2)C1CC1` [Example 97, Cyclopropanesulfonic acid (2-cycloheptylamino-4H-benzo[d][1,3]oxazin-6-yl)-amide] is 38.6 nM; for `c1csc(CNc2ccc3c(c2)COC(NC2CCCCCC2)=N3)n1` [Example 98, N^2-Cycloheptyl-N^6-thiazol-2-ylmethyl-4H-benzo[d][1,3]oxazine-2,6-diamine] it is 19.3 nM; for `CN(C)S(=O)(=O)Nc1ccc2c(c1)COC(NC1CCCCCC1)=N2` [Example 99, N,N-(Dimethyl)-N′-{2-cycloheptylamino-4H-benzo[d][1,3]oxazin-6-yl-}-sulfamide] it is 47.6 nM. As for `O=S(=O)(Nc1ccc2c(c1)COC(NC1CCCCCC1)=N2)c1ccccc1` [Example 100, N-(2-Cycloheptylamino-4H-benzo[d][1,3]oxazin-6-yl)-benzenesulfonamide], the Ki turned out to be 74.7 nM.

With `c1c[nH]c(CNc2ccc3c(c2)COC(NC2CCCCCC2)=N3)n1` [Example 105, N^2-Cycloheptyl-N^6-(1H-imidazol-2-ylmethyl)-4H-benzo[d][1,3]oxazine-2,6-diamine], the inhibition constant (Ki) worked out at 31.6 nM. The figure for `O=S(=O)(Nc1ccc2c(c1)COC(NCCOc1ccccc1)=N2)C1CC1` [Example 108, Cyclopropanesulfonic acid [2-(2-phenoxy-ethylamino)-4H-benzo[d][1,3]oxazin-6-yl]-amide] is 29.1 nM.

In the case of `O=S(=O)(Nc1ccc2c(c1)COC(NCCOc1ccccc1)=N2)c1ccccc1` [Example 109, N-[2-(2-Phenoxy-ethylamino)-4H-benzo[d][1,3]oxazin-6-yl]-benzenesulfonamide], the inhibition constant Ki is 32.3 nM.

`CN(C)S(=O)(=O)Nc1ccc2c(c1)COC(NCCOc1ccccc1)=N2` [Example 110, N,N-(Dimethyl)-N′-{2-(2-Phenoxy-ethylamino)-4H-benzo[d][1,3]oxazin-6-yl}-sulfamide]: the Ki amounted to 24.1 nM. The figure for `COc1cccc2c1C(NC1=Nc3ccc(NC(=O)CN4CCN(C)C(CO)C4)cc3CO1)CC2` (stereo not drawn) [Example 116, 2-(3-Hydroxymethyl-4-methyl-piperazin-1-yl)-N-[2-(7-methoxy-indan-1-ylamino)-4H-benzo[d][1,3]oxazin-6-yl]-acetamide] is 2.89 nM. The figure for `N#Cc1ccc2c(c1)COC(N[C@@H]1CCc3ccccc31)=N2` [Example 117, 2-((R)-Indan-1-ylamino)-4H-benzo[d][1,3]oxazine-6-carbonitrile] is 15.7 nM.

For `Nc1ccc2c(c1)COC(Nc1cccc(C3CC3)c1)=N2` [Example 119, N^2-(3-Cyclopropyl-phenyl)-4H-benzo[d][1,3]oxazine-2,6-diamine], the Ki is 37.8 nM.

On to `CN1CCN(CC(=O)Nc2ccc3c(c2)COC(NCCOc2ccccc2)=N3)CC1` [Example 122, 2-(4-Methyl-piperazin-1-yl)-N-[2-(2-phenoxy-ethylamino)-4H-benzo[d][1,3]oxazin-6-yl]-acetamide], for which the Ki amounted to 5.11 nM.

For the compound `O=C(CN1CCOCC1)Nc1ccc2c(c1)COC(NCCOc1ccccc1)=N2` [Example 123, 2-Morpholin-4-yl-N-[2-(2-phenoxy-ethylamino)-4H-benzo[d][1,3]oxazin-6-yl]-acetamide], the inhibition constant (Ki) stood at 41.4 nM. Consider `CC(C)N1CCC(NC(=O)Nc2ccc3c(c2)COC(NC2CCCCCC2)=N3)CC1` [Example 124, 1-(2-Cycloheptylamino-4H-benzo[d][1,3]oxazin-6-yl)-3-(1-isopropyl-piperidin-4-yl)-urea], for which the Ki worked out at 3.32 nM.

Take `c1cc(NC2=Nc3ccc(NCc4ncc[nH]4)cc3CO2)cc(C2CC2)c1` [Example 125, N^2-(3-Cyclopropyl-phenyl)-N^6-(1H-imdazol-2-ylmethyl)-4H-benzo[d][1,3]oxazine-2,6-diamine]: the Ki came out at 37.2 nM. Regarding `CN1CCN(CC(=O)Nc2ccc3c(c2)COC(Nc2cccc(C4CC4)c2)=N3)CC1` [Example 126, N-[2-(3-Cyclopropyl-phenylamino)-4H-benzo[d][1,3]oxazin-6-yl]-2-(4-methyl-piperazin-1-yl)-acetamide], the Ki was found to be 37.7 nM. The figure for `c1cc(NC2=Nc3ccc(NCc4nccs4)cc3CO2)cc(C2CC2)c1` [Example 127, N^2-(3-Cyclopropyl-phenyl)-N^6-thiazol-2-ylmethyl-4H-benzo[d][1,3]oxazine-2,6-diamine] is 37.9 nM. Regarding `O=C(Nc1ccc2c(c1)COC(Nc1cccc(C3CC3)c1)=N2)C1CC1` [Example 128, Cyclopropanecarboxylic acid [2-(3-cyclopropyl-phenylamino)-4H-benzo[d][1,3]oxazin-6-yl]-amide], the inhibition constant Ki came to 23.5 nM. The figure for `NCc1ccc2c(c1)COC(N[C@@H]1CCc3ccccc31)=N2` [Example 129, (6-Aminomethyl-4H-benzo[d][1,3]oxazin-2-yl)-(R)-indan-1-yl-amine] is 13.3 nM; for `CC1(C)Cc2cccc(NC3=Nc4ccc(NCc5ncc[nH]5)cc4CO3)c2O1` [Example 131, N^2-(2,2-Dimethyl-2,3-dihydro-benzofuran-7-yl)-N^6-(1H-imidazol-2-ylmethyl)-4H-benzo[d][1,3]oxazine-2,6-diamine] it is 17.9 nM; for `O=C(NCc1ccc2c(c1)COC(N[C@@H]1CCc3ccccc31)=N2)c1ccc(F)cc1` [Example 132, 4-Fluoro-N-[2-((R)-indan-1-ylamino)-4H-benzo[d][1,3]oxazin-6-ylmethyl]-benzamide] it is 48 nM. `C=Cc1ccc2c(c1)COC(N[C@@H]1CCc3ccccc31)=N2` [Example 134, (R)-Indan-1-yl-(6-vinyl-4H-benzo[d][1,3]oxazin-2-yl)-amine]: the Ki was found to be 13.5 nM.
